This note sets out measurements from US20080045514A1 (Cytovia, Inc., priority 2006, published 2008).

Read-outs that look alike come from different tables or passages of the source.

Holding throughout (format): cell-based
Assay [1] has as its system human Burkitt's lymphoma cell line Namalwa. Put plainly: Caspase cascade activation (EC50), Namalwa. The note with it: Homo sapiens, Burkitts lymphoma cell, Namalwa cells. The protocol: (§1) Human breast cancer cell lines T-47D, human hepatocellular carcinoma cell line SNU398, human colon carcinoma cell line HCT116, human cancer cell line H1299, human Burkitt's lymphoma cell line Namalwa, human lymphoma cell line Raji, and human B cell lymphoblastoid cell line Ramos were grown according to media component mixtures designated by American Type Culture Collection+10% FCS (Invitrogen Corporation), in a 5% CO2-95% humidity incubator at 37° C. T-47D and H1299 cells were maintained at a cell density between 50 and 80% confluency at a cell density of 0.1 to 0.6×10^6 cells/mL. Cells were harvested at 600×g and resuspended at 0.65×10^6 cells/mL into appropriate media+10% FCS. An aliquot of 22.5 μL of cells was added to a well of a 384-well microtiter plate containing 2.5 μL of a 10% DMSO in RPMI-1640 media solution containing 0.16 to 100 μM of 3-(2-chlorophenyl)-6-(3,4-methylenedioxyphenyl)-7H-[1,2,4]triazolo[3,4-b][1,3,4]thiadiazine or other test compound (0.016 to 10 μM final). An aliquot of 22.5 μL of cells was added to a well of a 384-well microtiter plate containing 2.5 μL of a 10% DMSO in RPMI-1640 media solution without test compound as the control sample. The samples were mixed by agitation and then incubated at 37° C. for 48 h in a 5% CO2-95% humidity incubator. After incubation, the samples were removed from the incubator and 25 μL of a solution containing 14 μM of N—(Ac-DEVD)-N′-ethoxycarbonyl-R110 (SEQ ID No.:1) fluorogenic substrate (Cytovia, Inc.; WO99/18856), 20% sucrose (Sigma), 20 mM DTT (Sigma), 200 mM NaCl (Sigma), 40 mM Na PIPES buffer pH 7.2 (Sigma), and 500 μg/mL lysolecithin (Calbiochem) was added. The samples were mixed by agitation and incubated at room temperature. Using a fluorescent plate reader (Model SPECTRAfluor Plus, Tecan), an initial reading (T=0) was made approximately 1-2 min after addition of the substrate solution, employing excitation at 485 nm and emission at 530 nm, to determine the background fluorescence of the control sample. After the 3 h incubation, the samples were read for fluorescence as above (T=3 h). Calculation: The Relative Fluorescence Unit values (RFU) were used to calculate the sample readings as follows: RFU(T=3H)−Control RFU(T=0)=Net RFU(T=3h) The activity of caspase cascade activation was determined by the ratio of the net RFU value for 3-(2-chlorophenyl)-6-(3,4-methylenedioxyphenyl)-7H-[1,2,4]triazolo[3,4-b][1,3,4]thiadiazine (Example P) or other test compound to that of control samples. The EC50 (nM) was determined by a sigmoidal dose-response calculation (Prism 3.0, GraphPad Software Inc.).

Assay [2] relates to human colon carcinoma cell line HCT116. Description: Caspase cascade activation (EC50), HCT116. The note with it: Homo sapiens, HCT-116, HCT116 cells. The protocol:
as §1

For assay [3], the system named is human hepatocellular carcinoma cell line SNU398. Put plainly: Caspase cascade activation (EC50), SNU398. The following applies: Homo sapiens, SNU-398, SNU398 cells. The protocol:
as §1

The subject of assay [4] is human breast cancer cell line T-47D. Description: Caspase cascade activation (EC50), T-47D. The note with it: Homo sapiens, T47D cells. The protocol: as §1
[5] abbreviates: caspase cascade activation, read-out: caspase potency (EC50) Namalwa.
Where [6] appears, read: caspase cascade activation, read-out: caspase potency (EC50) HCT116.
[7] abbreviates: caspase cascade activation, read-out: caspase potency (EC50) SNU398.
[8] abbreviates: caspase cascade activation, read-out: caspase potency (EC50) T47D.

Usually EC50 stands for the concentration at which the effect is half-maximal. For the compound `Cc1ccccc1-c1nnc2n1N=C(c1ccc(C)c([N+](=O)[O-])c1)CS2` [Example 53, 6-(4-Methyl-3-nitrophenyl)-3-(2-methylphenyl)-7H-[1,2,4]triazolo[3,4-b][1,3,4]thiadiazine], the EC50 in assay [1] (setting [5]), in assay [2] (setting [6]), in assay [3] (setting [7]) and in assay [4] (setting [8]) was greater than 10000 nM each time.

With `COc1ccccc1-c1nnc2n1N=C(c1ccccc1)CS2` [Example K3], the EC50 in assay [1] (setting [5]) worked out at 2830 nM; in assay [2] (setting [6]), 5330 nM; in assay [3] (setting [7]), 3780 nM; in assay [4] (setting [8]), 3650 nM.

Regarding `Cc1ccc(C2=Nn3c(nnc3-c3ccccc3[S+](C)[O-])SC2)cc1` (centres unmarked) [Example 72, 3-(2-Methylsulfinylphenyl)-6-(4-methylphenyl)-7H-[1,2,4]triazolo[3,4-b][1,3,4]thiadiazine], the EC50 in assay [1] (setting [5]), in assay [2] (setting [6]), in assay [3] (setting [7]) and in assay [4] (setting [8]) was greater than 10000 nM throughout.

Regarding `COc1ccccc1-c1nnc2n1N=C(c1ccc(C#N)cc1)CS2` [Example 87, 6-(4-Cyanophenyl)-3-(2-methoxyphenyl)-7H-[1,2,4]triazolo[3,4-b][1,3,4]thiadiazine], the EC50 worked out at 2280 nM in assay [1] (setting [5]), 5090 nM in assay [2] (setting [6]), 2550 nM in assay [3] (setting [7]) and 3330 nM in assay [4] (setting [8]).

On to `COc1ccccc1-c1nnc2n1N=C(c1cc(Br)c3c(c1)CCN3)CS2` [Example 96, 6-(7-Bromoindolin-5-yl)-3-(2-methoxyphenyl)-7H-[1,2,4]triazolo[3,4-b][1,3,4]thiadiazine], for which the EC50 worked out at 31 nM in assay [1] (read-out: Caspase potency (EC50) Namalwa), 79 nM in assay [2] (read-out: Caspase potency (EC50) HCT116), 35 nM in assay [3] (read-out: Caspase potency (EC50) SNU398) and 136 nM in assay [4] (read-out: Caspase potency (EC50) T47D).

In the case of `COc1ccccc1-c1nnc2n1N=C(c1ccc(C(=O)O)cc1)CS2` [Example 89, 6-(4-Carboxyphenyl)-3-(2-Methoxyphenyl)-7H-[1,2,4]triazolo[3,4-b][1,3,4]thiadiazine], the EC50 in assay [1] (setting [5]), in assay [2] (setting [6]), in assay [3] (setting [7]) and in assay [4] (setting [8]) was greater than 10000 nM throughout.

For the compound `Cc1cc(Cl)ccc1-c1nnc2n1N=C(c1ccc(C)c([N+](=O)[O-])c1)CS2` [Example 90, 3-(4-Chloro-2-methylphenyl)-6-(4-methyl-3-nitrophenyl)-7H-[1,2,4]triazolo[3,4-b][1,3,4]thiadiazine], the EC50 in assay [1] (setting [5]) was found to be 303 nM; in assay [2] (setting [6]), 492 nM; in assay [3] (setting [7]) it was 412 nM; in assay [4] (setting [8]) it was 915 nM.

Take `COc1ccccc1-c1nnc2n1N=C(c1cccc(C)c1)CS2` [Example 82, 3-(2-Methoxyphenyl)-6-(3-methylphenyl)-7H-[1,2,4]triazolo[3,4-b][1,3,4]thiadiazine]: the EC50 came out at 497 nM in assay [1] (setting [5]), 370 nM in assay [2] (setting [6]), 500 nM in assay [3] (setting [7]) and 605 nM in assay [4] (setting [8]).

On to `COc1ccc(-c2nnc3n2N=C(c2ccc4[nH]c(=O)oc4c2)CS3)cc1OC` [Example 35, 6-(2,3-Dihydro-2-oxobenzo[d]oxazol-6-yl)-3-(3,4-dimethoxyphenyl)-7H-[1,2,4]triazolo[3,4-b][1,3,4]thiadiazine], for which the EC50 in assay [1] (setting [5]), in assay [2] (setting [6]), in assay [3] (setting [7]) and in assay [4] (setting [8]) was greater than 10000 nM each time.

Turning to `Cc1ccc(C2=Nn3c(nnc3-c3ccc(Cl)cc3C)SC2)cc1N` [Example 91, 6-(3-Amino-4-methylphenyl)-3-(4-chloro-2-methylphenyl)-7H-[1,2,4]triazolo[3,4-b][1,3,4]thiadiazine], the EC50 in assay [1] (setting [5]) turned out to be 16 nM; in assay [2] (setting [6]) it was 30 nM; in assay [3] (setting [7]), 28 nM; in assay [4] (setting [8]), 63 nM.

As for `COc1ccccc1-c1nnc2n1N=C(c1ccc(C(C)C)cc1)CS2` [Example 44, 6-(4-Isopropylphenyl)-3-(2-methoxyphenyl)-7H-[1,2,4]triazolo[3,4-b][1,3,4]thiadiazine], the EC50 in assay [1] (setting [5]) was 248 nM; in assay [2] (setting [6]) it was 275 nM; in assay [3] (setting [7]) it was 243 nM; in assay [4] (setting [8]) it was 281 nM.

Consider `COC(=O)c1ccc(C2=Nn3c(nnc3-c3ccccc3OC)SC2)cc1` [Example 85, 6-(4-Methoxycarbonylphenyl)-3-(2-methoxyphenyl)-7H-[1,2,4]triazolo[3,4-b][1,3,4]thiadiazine], for which the EC50 in assay [1] (setting [5]) stood at 209 nM; in assay [2] (setting [6]), 298 nM; in assay [3] (setting [7]), 253 nM; in assay [4] (setting [8]), 274 nM.

Take `Cc1ccc(C2=Nn3c(nnc3-c3snnc3C)SC2)cc1` [Example 93, 3-(4-Methyl-1,2,3-thiadiazol-5-yl)-6-(4-methylphenyl)-7H-[1,2,4]triazolo[3,4-b][1,3,4]thiadiazine]: the EC50 in assay [1] (setting [5]), in assay [2] (setting [6]), in assay [3] (setting [7]) and in assay [4] (setting [8]) was greater than 10000 nM each time.

Consider `CCN(CC)S(=O)(=O)c1ccc(C2=Nn3c(nnc3-c3ccccc3C)SC2)cc1` [Example 52, 6-(4-(N,N-Diethylaminosulfonyl)phenyl)-3-(2-methylphenyl)-7H-[1,2,4]triazolo[3,4-b][1,3,4]thiadiazine], for which the EC50 in assay [1] (setting [5]), in assay [2] (setting [6]), in assay [3] (setting [7]) and in assay [4] (setting [8]) was greater than 10000 nM each time.

`COc1cccc(-c2nnc3n2N=C(c2ccc(Br)cc2)CS3)c1` [Example F2, 3-(3-Methoxyphenyl)-6-(4-bromophenyl)-7H-[1,2,4]triazolo[3,4-b][1,3,4]thiadiazine]: the EC50 in assay [2] (setting [6]) was greater than 10000 nM; in assay [3] (setting [7]) it was 2700 nM; in assay [4] (setting [8]) it was 5400 nM.

On to `CCOc1ccc(C2=Nn3c(nnc3-c3cccc(OCC)c3)SC2)cc1` [Example G2, 3-(3-Ethoxyphenyl)-6-(4-ethoxyphenyl)-7H-[1,2,4]triazolo[3,4-b][1,3,4]thiadiazine], for which the 50% effective concentration (EC50) is greater than 10000 nM in assay [2] (setting [6]), 2550 nM in assay [3] (setting [7]) and 6370 nM in assay [4] (setting [8]).

As to `COc1ccc(C2=Nn3c(nnc3-c3ccccc3Cl)SC2)cc1` [Example C2, 3-(2-Chlorophenyl)-6-(4-methoxyphenyl)-7H-[1,2,4]triazolo[3,4-b][1,3,4]thiadiazine], the values for the EC50 in assay [2] (setting [6]), in assay [3] (setting [7]) and in assay [4] (setting [8]) were 177 nM, 60 nM and 395 nM, respectively.

Regarding `CCOc1ccc(C2=Nn3c(nnc3-c3cccc(Cl)c3)SC2)cc1` [Example E2, 3-(3-Chlorophenyl)-6-(4-ethoxyphenyl)-7H-[1,2,4]triazolo[3,4-b][1,3,4]thiadiazine], the EC50 is 681 nM in assay [2] (setting [6]), 429 nM in assay [3] (setting [7]) and 1100 nM in assay [4] (setting [8]).

For `COc1cccc(-c2nnc3n2N=C(c2ccc(O)c(O)c2)CS3)c1` [Example D2, 3-(3-Methoxyphenyl)-6-(3,4-dihydroxyphenyl)-7H-[1,2,4]triazolo[3,4-b][1,3,4]thiadiazine], the figures for the 50% effective concentration (EC50) in assay [2] (setting [6]), in assay [3] (setting [7]) and in assay [4] (setting [8]) were 525 nM, 112 nM and 687 nM, respectively.

With `COc1ccc(-c2nn3c(-c4ccccc4OC)nnc3[nH]c2=O)cc1` [Example 36, 3-(2-Methoxyphenyl)-6-(4-methoxyphenyl)-[1,2,4]triazolo[4,3-b][1,2,4]triazin-7(8H)-one], the EC50 in assay [1] (setting [5]), in assay [2] (setting [6]) and in assay [4] (setting [8]) was greater than 10000 nM each time.
